From patent publication US8101212B2, “Bioactive botanical cosmetic compositions and processes for their production” (Akzo Nobel Surface Chemistry LLC, priority 2002, dated 2012) come the findings set out here.

The nature of data set [1]: Superoxide scavenging activity (xanthine oxidase system, cytochrome c reduction). Format: biochemical. The source says: Reactive oxygen species generated by activated inflammatory cells (endogenous or exogenous) create specific oxidant which was used to provide the measurements of superoxide scavenging activity. The assay used for evaluation of superoxide scavenging activity relates to the one form of antioxidant activity, which is of benefit in neutralizing the damage associated with oxidation. To generate superoxide anions in high yield and in a controlled fashion, an enzymatic system (xanthine oxidase) was used. The conversion of […] by this enzyme generates amounts of superoxide anions, which are stoichiometric with the amount of substrate provided. The assay used was based on the reduction of cytochrome c from its ferric to ferrous form as a sensitive measure of superoxide levels. […] Method 7: Method for Determination of Superoxide Scavenging Activity. The enzymatic system, which uses xanthine oxidase (a purified enzyme preparation produced by “Sigma”), was used to generate superoxide anions in high yield and in a controlled fashion. The conversion of xanthine to hydroxanthine by this enzyme generates amounts of superoxide anions and reduction of ferricytochrome c to ferrocytochrome c was used as a sensitive measure of superoxide levels. […]

A further data set deals with T1, gelatinase B (MMP-9) (Homo sapiens, UniProt P14780).
T1 construct: purchased Amersham Pharmacia
T1 sequence (P14780 94-707): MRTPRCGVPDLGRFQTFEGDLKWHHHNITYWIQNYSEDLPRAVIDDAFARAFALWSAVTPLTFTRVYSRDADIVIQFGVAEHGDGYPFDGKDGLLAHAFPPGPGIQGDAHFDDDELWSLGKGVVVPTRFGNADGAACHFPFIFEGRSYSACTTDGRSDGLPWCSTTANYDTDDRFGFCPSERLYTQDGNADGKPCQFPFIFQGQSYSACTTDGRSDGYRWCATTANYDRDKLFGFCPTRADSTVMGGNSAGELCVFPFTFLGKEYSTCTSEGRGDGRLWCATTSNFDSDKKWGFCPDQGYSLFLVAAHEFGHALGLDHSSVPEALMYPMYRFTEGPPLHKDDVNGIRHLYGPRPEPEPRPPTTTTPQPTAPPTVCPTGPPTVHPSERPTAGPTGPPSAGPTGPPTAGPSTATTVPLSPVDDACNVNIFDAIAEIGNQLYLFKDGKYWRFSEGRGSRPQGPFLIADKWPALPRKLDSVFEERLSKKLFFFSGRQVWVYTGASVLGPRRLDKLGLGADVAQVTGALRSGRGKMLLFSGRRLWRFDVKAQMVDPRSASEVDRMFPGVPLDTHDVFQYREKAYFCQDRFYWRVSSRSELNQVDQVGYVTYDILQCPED
Briefly: Gelatinase B inhibitory activity (MMP-9 Activity ELISA). It is filed as biochemical. The source says:
Neutrophils contain two major enzymes from the class of matrix metalloproteinases, which collectively are implicated in extensive connective tissue destruction: neutrophil collagenase (MMP-8) and gelatinase B (MMP-9). Because elastase has poor activity against native collagen, and neutrophil collagenase alone cannot solubilize the connective tissue protein by itself, gelatinase B is considered as a major contributor to inflammatory injury to the extracellular matrix. A specific assay for this enzyme was used to evaluate the potential of cosmetic botanical ingredients to inhibit degradation of the extracellular matrix mediated by inflammatory cell-derived matrix metalloproteinases. Gelatinase B activity was detected by hydrolysis of a low molecular weight synthetic substrate (APMA). Inhibitors of gelatinase B diminish the accelerating rate of enzyme reaction product formation in a dose-dependent fashion. Such enzyme inhibition was found when tested cosmetic ingredients were added to the reaction mixture. Method 6: Method for Determination of Gelatinase B Inhibitory Activity. […] The enzymatic activity was detected at 405 nm by hydrolysis of a low molecular weight synthetic substrate for Gelatinase B: APMA. […]
On the technique in general: ELISA stands for enzyme-linked immunosorbent assay.

The subject of a further data set is 3T3 fibroblasts. Briefly: Neutral red uptake (NRU) cytotoxicity test. Format: cell-based. Details: key to Cell Morphology: NCM: Normal Cell Morphology; MLT: Moderate Level of Toxicity. The source says:
As an example, a test involving neutral red uptake (NRU) by 3T3 fibroblasts, which is commonly used for determination of cytotoxicity, was utilized to assess cytotoxicity of cosmetic botanical ingredients. The NRU value is proportional to the number of viable cells in this in vitro test population.

≈ marks a conversion by molar mass, not a printed value.

`O=C(/C=C/c1ccc(O)c(O)c1)O[C@H](Cc1ccc(O)c(O)c1)C(=O)O` [Rosmarinic Acid, rosmarinic acid] gave an ICR50 in data set [1] (Table 29) of 26.5 μg Dry Matter/mL. In addition, the “IC50 (superoxide scavenging activity)” value in data set [1] (Tables 35 and 36) is 26.5 µg/mL (≈ 73.5 µM). In addition, the midpoint of inhibition on gelatinase B (MMP-9), the IC50, lay at 83.3 µM. Further, on gelatinase B (MMP-9) (read-out: % Inhibition [100 μg/ml]), the inhibition at 100 µg/mL is 91%.
As to “EGF: Epidermal Growth Factor (EGF) used as a positive control”, the “NRU50 of positive control” value with 3T3 fibroblasts is given as > 2,500 μg/ml. The “Cell Morphology” value with 3T3 fibroblasts (Table 27) is given as “NCM”; with 3T3 fibroblasts (Table 28, marigold flower products), “NCM”. For the same compound, in the data set on 3T3 fibroblasts (Tables 27 and 28), the NRU50 is on record as >2,500 μg Dry Matter/mL.
